One data set concerns Oryctolagus sp. To be noted: reproduction developmental.
Another data set has as its system Pontoscolex corethrurus. The following applies: acute; mortality.
A further data set relates to Rattus norvegicus. The following applies: for LD50: acute, mortality.
The next data set deals with Mus musculus. The following applies: chronic.
For a further data set, the system named is Gallus gallus. To be noted: subchronic; duration: 42 days; oral; diet; Chicken; no effects.
For another data set, the system named is Oncorhynchus mykiss. The following applies: acute, mortality.
The next data set deals with Apis mellifera. The following applies: acute, mortality.
For a further data set, the system named is Anas platyrhynchos. The following applies: oral, mortality.
The mark [1] stands for this setting: duration: 21 months, M, hematological.
Where [2] appears, read: duration: 23 months, F, hematological.

In brackets after ≈: the same amount, converted by molar mass. Several values for one entry are separate records, joined by “and”; a condition that tells them apart may be missing. Equal values may be shown once.

Turning to `C=CO.OCCO`, the NOAEL in the data set on Canidae (chronic, duration: 9 months, oral, diet, M/F, Beagle, no effects) amounted to 800 mg/kg-day.

As to `COC(=O)[C@H](Cc1ccccc1)NC(=O)[C@H](CC(=O)O)NCCCc1ccc(OC)c(O)c1.O`, the no observed adverse effect level (NOAEL) in the data set on Oryctolagus sp. (duration: 22 days, oral, gavage, F, New Zealand, clinical signs) amounted to 500 mg/kg-day.

In the data set on Oryctolagus sp. (body weight), `O=C(O)c1cn[nH]c1C(F)F` [1H-3-Difluoromethylpyrazole-4-carboxylic acid] gave an NOAEL of 300 mg/kg-day.

Regarding `COc1nc(C)nc(N)n1` [2-Methyl-4-amino-6-methoxy-s-triazine], the LD50 (acute, dermal, F, mortality) worked out at 1000 mg/kg. For the setting “acute, inhalation, mortality”, the LC50 was > 5.2 µg/mL.

For `CCC=C(C)C(=O)O` [2-Methylpent-2-en-1-oic acid], in the data set on Pontoscolex corethrurus, the LC50 was determined as 2040 mg/kg.

For `Nc1ccc(Cl)c(Cl)c1` [3,4-Dichloroaniline], the LD50 in the data set with Colinus virginianus (acute, oral, mortality) came to 99.1 mg/kg-day.

For `CCCC(=O)C(CC)Sc1ccoc1C` (configuration not stated) [3-(2-Methyl-3-furylthio)-4-heptanone], the no observed adverse effect level (NOAEL) in the data set with Rattus norvegicus (subchronic, duration: 90 days, oral, diet) is 3.76 mg/kg-day; the NOAEL in the data set on Rattus norvegicus (subchronic, duration: 90 days, oral, diet, M/F, no effects) is 3.76 mg/kg-day; the NOAEL (subchronic, duration: 90 days) was 3.76 mg/kg-day.

For the molecule `CSCc1ccsc1` [3-(Methylthio)methylthiophene], the NOAEL with Rattus norvegicus (subchronic, duration: 90 days) was 0.29 mg/kg-day and the NOAEL (repeat dose other) is 0.29 mg/kg-day.

Molecule `COc1cc(CCC(C)=O)ccc1O` [4-(4-Hydroxy-3-methoxyphenyl)-2-butanone] yielded an LC50 with Pontoscolex corethrurus of 346 mg/kg.

The molecule `c1cnc2c(n1)CCCC2` [5,6,7,8-Tetrahydroquinoxaline] displayed an LC50 with Pontoscolex corethrurus of 238 mg/kg.

Molecule `Cc1cccc2nccnc12` [5-Methylquinoxaline] returned an LC50 in the data set with Pontoscolex corethrurus of 272 mg/kg.

Take `CCN(CC)c1ccc(C(=C2C=CC(=[N+](CC)CC)C=C2)c2cc(O)c(S(=O)(=O)[O-])cc2S(=O)(=O)[O-])cc1.CCN(CC)c1ccc(C(=C2C=CC(=[N+](CC)CC)C=C2)c2cc(O)c(S(=O)(=O)[O-])cc2S(=O)(=O)[O-])cc1.[Ca+2]` [Acid Blue 3]: the NOAEL in the data set on Mus musculus (setting [1]) and with Mus musculus (setting [2]) was 500 mg/kg-day throughout.

Consider `CCCCC(CC)COC(=O)C1CCC(C(=O)OCC(CC)CCCC)CC1` (configuration not stated) [Bis(2-ethylhexyl) cyclohexane-1,4-dicarboxylate], for which, for the setting “subchronic, duration: 90 days, oral, no effects”, the NOAEL stood at 1000 mg/kg-day.

The molecule `CCOC(=O)C(CC)C(C)=O` (configuration not stated) [Butanoic acid, 2-ethyl-3-oxo-, ethyl ester] showed an NOAEL (repeat dose other, development) of 600 mg/kg-day.

`O=S(=O)([O-])c1cc(S(=O)(=O)[O-])c2c(N=Nc3ccc(S(=O)(=O)[O-])c4ccccc34)c(O)ccc2c1.[Na+].[Na+].[Na+]` [C.I. Acid Red 18, trisodium salt]: the NOAEL in the data set on Mus musculus (duration: 82 weeks, oral, diet, M/F, neurology) was 70 mg/kg-day.

Turning to `CCN(CC)c1ccc(C(=C2C=CC(=[N+](CC)CC)C=C2)c2cc(O)c(S(=O)(=O)[O-])cc2S(=O)(=O)[O-])cc1.[Na+]` [C.I. Food Blue 5:2], the NOAEL in the data set on Mus musculus (setting [1]) and with Mus musculus (setting [2]) was 500 mg/kg-day each time.

Molecule `CC(O)C(=O)[O-].CC(O)C(=O)[O-].[Ca+2]` (configuration not stated) [Calcium lactate] registered an LEL with Gallus gallus of 30000 mg/kg-day.

Consider `C1CCC(SSC2CCCCC2)CC1` [Dicyclohexyl disulfide], for which the NOAEL (subchronic, duration: 90 days, oral) stood at 0.23 mg/kg-day.

As to `CCO` [Ethanol], in the data set on Oncorhynchus mykiss (duration: 24 hours), the LC50 is 11200 µg/mL (≈ 243000 µM). Moreover, in the data set with Rattus norvegicus (subchronic, duration: 90 days, oral, gavage, organ weight), the no-observed-adverse-effect level (NOAEL) was 1730 mg/kg-day.

Consider `CCCSP(=O)(OCC)SCCC` [Ethoprop], for which the NOEL was determined as 0.088 mg/kg-day in the data set on Colinus virginianus (reproduction developmental, mortality) and 7.3 mg/kg-day in the data set on Rattus norvegicus (chronic).

In the case of `CCOc1ccc2c(c1)C(C)=CC(C)(C)N2` [Ethoxyquin], the LC50 in the data set with Oncorhynchus mykiss (duration: 96 hours) is 18 µg/mL (≈ 82.8 µM); with Colinus virginianus (acute, oral, diet, mortality), > 2420 mg/kg-day. This molecule also showed an NOEC with Colinus virginianus (short-term, oral, diet) of 1500 mg/kg-day. In the data set with Rattus norvegicus (oral), this molecule showed an LD50 of 1730 mg/kg-day. The NOEL in the data set on Canidae (subchronic, duration: 90 days, Dog Other, clinical signs) stood at 2 mg/kg-day.

For the molecule `C=CCc1ccc(O)c(OC)c1` [Eugenol], the LC50 with Oncorhynchus mykiss (duration: 96 hours) is 5.6 µg/mL and > 10 µg/mL. Moreover, in the data set on Rattus norvegicus (oral), the LD50 is 1930 mg/kg. The NOAEL in the data set with Rattus norvegicus (chronic, duration: 2 years, body weight) came to 300 mg/kg-day; in the data set with Rattus norvegicus (reproduction developmental, clinical signs) it was 100 mg/kg-day; with Oryctolagus sp. (clinical signs), 100 mg/kg-day. This molecule also returned an NOEL with Rattus norvegicus (developmental, development) of 250 mg/kg-day.

Regarding `N#Cc1nn(-c2c(Cl)cc(C(F)(F)F)cc2Cl)c(N)c1S(=O)C(F)(F)F` (configuration not stated) [Fipronil], the LD50 in the data set with Apis mellifera (dermal) is 0.00593 µg/piece; in the data set on Apis mellifera (oral, unspecified), 0.00417 µg/piece.

Consider `O=c1c2cc(F)ccc2nc(-n2cncn2)n1-c1ccc(Cl)cc1Cl` [Fluquinconazole], for which the LD50 is > 2000 mg/kg-day in the data set with Colinus virginianus (acute, oral, mortality); > 112 mg/kg-day with Rattus norvegicus; > 2000 mg/kg-day with Anas platyrhynchos (acute, unspecified); > 210 mg/kg-day in the data set with Anas platyrhynchos (short-term, feed). In the data set on Colinus virginianus (chronic), this molecule came in with an NOEL of 1.9 mg/kg-day. In the data set with Rattus norvegicus (chronic), this molecule displayed a no-observed-adverse-effect level (NOAEL) of 0.9 mg/kg-day.

Source of the values: EPA's ToxValDB 9.5.
